Results reported in publication PMC1892040 (PLoS Medicine, 2007).
Read-outs that look alike come from different tables or passages of the source.

Columns and labels:
[1] = tested on: myeloma cell line SP2/0; assay: Cytotoxicity assay (sulforhodamine B); format: cell-based; conditions: adult worms 24 h; myeloma cells 24 h and 5 d
Experimental: Cytotoxicity assays were performed using sulforhodamine B to determine cellular protein content as described. Briefly, myeloma cell line SP2/0 was cultured in 96-well microtiter plates containing 0.2 ml of RPMI-1640 per well at a cell density of 1,000 per well at 37 °C in 5% CO2. Cells were treated with drug concentrations (or drug carrier alone) and exposure times as indicated. After treatment, cells were fixed with 10% TCA at 4 °C for 1 h. Fixed cells were rinsed to remove fixative and then stained in 0.4% (w/v) sulforhodamine B (Sigma) in 1% acetic acid for 30 min. After washing with 1% acetic acid and dye extraction in 10 mM Tris (pH 10.5), plates were read at A564nm. The A564nm of drug-treated cells was compared to carrier-only-treated cells. The treatments were done in triplicate and the experiments repeated three times.

[2] = molecular target: T1, S. mansoni TGR (Schistosoma mansoni, UniProt Q962Y6)
T1 sequence (Q962Y6 1-598): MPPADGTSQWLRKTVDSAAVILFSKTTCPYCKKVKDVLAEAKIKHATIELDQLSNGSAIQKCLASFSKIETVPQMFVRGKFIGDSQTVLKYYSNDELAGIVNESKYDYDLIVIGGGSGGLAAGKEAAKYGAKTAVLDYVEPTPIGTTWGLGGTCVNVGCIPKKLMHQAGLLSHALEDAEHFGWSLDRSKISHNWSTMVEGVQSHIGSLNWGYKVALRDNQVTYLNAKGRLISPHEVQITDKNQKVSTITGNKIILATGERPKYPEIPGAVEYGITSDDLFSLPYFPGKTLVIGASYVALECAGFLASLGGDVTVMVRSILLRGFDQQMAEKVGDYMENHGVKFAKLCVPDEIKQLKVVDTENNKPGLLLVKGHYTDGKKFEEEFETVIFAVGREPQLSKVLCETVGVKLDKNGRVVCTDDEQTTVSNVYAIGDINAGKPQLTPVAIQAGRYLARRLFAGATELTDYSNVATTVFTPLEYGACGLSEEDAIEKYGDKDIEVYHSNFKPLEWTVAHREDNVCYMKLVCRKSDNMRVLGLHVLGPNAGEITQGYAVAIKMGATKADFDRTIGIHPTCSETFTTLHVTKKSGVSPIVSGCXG
Experimental: (§1) Assays were performed at 25 °C in 0.1 M potassium phosphate (pH 7.4), 10 mM EDTA using 100 μM NADPH unless otherwise stated.
(§2) Initial inhibitor screens were conducted in 200 μl volumes in 96 well plates with 50 μM inhibitor, 100 μM NADPH, and 5 nM TGR in 0.1 M potassium phosphate (pH 7.4), 10 mM EDTA with a preincubation step of 15 min. […] All assays were done in triplicate.

[3] = molecular target: phosphofructokinase (PFK); design: method as in PMID 8898332; conditions: cited from earlier work
[4] = molecular target: T1, S. mansoni TGR; format: biochemical; design: The entire TGR ORF plus the SECIS element was subcloned into pET-24a; made in house; host or cells: Escherichia coli BL21(DE3) with pSUABC; conditions: read-out: IC50 S. mansoni TGR, DTNB (TrxR activity)
Experimental: as §1, §2

[5] = molecular target: T1, S. mansoni TGR; format: biochemical; design: The entire TGR ORF plus the SECIS element was subcloned into pET-24a; made in house; host or cells: Escherichia coli BL21(DE3) with pSUABC; conditions: read-out: IC50 S. mansoni TGR, GSSG (GR activity)
Experimental: as §1, §2

[6] = molecular target: T1, S. mansoni TGR; assay: biochemical; format: biochemical; design: The entire TGR ORF plus the SECIS element was subcloned into pET-24a; made in house; host or cells: Escherichia coli BL21(DE3) with pSUABC; conditions: for Type of inhibition of TGR: reciprocal plots, TrxR and GR activities
Experimental: The inhibitory constants (K i) were determined using Equation 1 [21]: [drawing 1] where v maxapp is the apparent v max at different inhibitor concentrations and corresponds to the value of the 1/v intercept on the reciprocal plot.
The apparent Vmax for various concentrations of inhibitors were used to calculate K i values. Concentrations of PAT are no drug (♦), 10 nM, 30 nM (▴), and 75 nM (×); and of OPZ are no drug (♦), 50 μM, 75 μM (▴), and 100 μM (×).

[7] = molecular target: T1, S. mansoni TGR; assay: Kinetic analysis of recombinant S. mansoni TGR with substrates
Experimental: Kinetic parameters were determined using Lineweaver–Burk plots using KaleidaGraph 4 (Synergy Software, http://www.synergy.com) least squares best fit of data and varying concentrations of one substrate while maintaining the concentration of other substrates. […] All assays were done in triplicate.

[8] = tested on: Human TrxR1; conditions: read-out: Apparent Km, Human TrxR1; cited from earlier work
[9] = tested on: Human TGR; conditions: read-out: Apparent Km, Human TGR; cited from earlier work
[10] = molecular target: T2, Human GR (Homo sapiens, UniProt P00390); conditions: read-out: Apparent Km, Human GR; cited from earlier work
T2 sequence (P00390 44-522): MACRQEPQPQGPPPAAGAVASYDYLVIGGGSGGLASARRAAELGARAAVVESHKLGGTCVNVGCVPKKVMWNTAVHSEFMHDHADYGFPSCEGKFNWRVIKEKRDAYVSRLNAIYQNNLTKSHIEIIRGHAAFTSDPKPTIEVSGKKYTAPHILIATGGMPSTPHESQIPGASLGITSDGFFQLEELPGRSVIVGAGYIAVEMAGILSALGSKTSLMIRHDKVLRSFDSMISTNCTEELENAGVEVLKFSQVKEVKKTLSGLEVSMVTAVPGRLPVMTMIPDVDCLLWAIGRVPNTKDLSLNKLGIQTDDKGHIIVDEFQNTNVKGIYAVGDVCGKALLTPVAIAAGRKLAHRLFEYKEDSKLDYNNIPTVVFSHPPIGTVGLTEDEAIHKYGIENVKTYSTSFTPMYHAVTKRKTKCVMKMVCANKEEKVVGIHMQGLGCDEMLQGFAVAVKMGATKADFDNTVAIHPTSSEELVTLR

[11] = molecular target: T2, Human GR; assay: Inhibition of human GR (GSSG); format: biochemical; conditions: 12.5 μM compound, 200 μM disulfide substrate, preincubation 60 min at 37 °C; read-out: Percent inhibition of Human GR
Description: (§3) In order to assess the potential for inhibition of TGR we screened several structurally diverse series of compounds (Figure S1) known to act as inhibitors of disulfide reductases from various organisms.

[12] = molecular target: T3, Human TrxR (Homo sapiens, UniProt Q16881); assay: Inhibition of human TrxR (DTNB/Trx); format: biochemical; conditions: 12.5 μM compound, 200 μM disulfide substrate, preincubation 60 min at 37 °C; read-out: Percent inhibition of Human TrxR
T3 sequence (Q16881 1-499 isoform Q16881-5): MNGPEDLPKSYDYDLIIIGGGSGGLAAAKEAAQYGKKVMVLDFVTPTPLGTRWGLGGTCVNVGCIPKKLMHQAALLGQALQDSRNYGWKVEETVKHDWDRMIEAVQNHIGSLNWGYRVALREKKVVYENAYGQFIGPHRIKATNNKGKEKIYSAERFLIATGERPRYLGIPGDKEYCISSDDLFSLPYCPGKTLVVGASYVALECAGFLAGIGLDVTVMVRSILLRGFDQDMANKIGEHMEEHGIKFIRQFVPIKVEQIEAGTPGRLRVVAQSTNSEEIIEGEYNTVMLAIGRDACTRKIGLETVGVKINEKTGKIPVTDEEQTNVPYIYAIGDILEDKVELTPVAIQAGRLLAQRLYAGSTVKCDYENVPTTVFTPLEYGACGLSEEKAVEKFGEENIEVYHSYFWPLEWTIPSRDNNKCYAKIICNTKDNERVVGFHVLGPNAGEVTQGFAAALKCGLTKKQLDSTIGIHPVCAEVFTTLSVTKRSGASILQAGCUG
Description: as §3

[13] = molecular target: T1, S. mansoni TGR; conditions: rough estimation at low OPZ concentrations
Experimental: OPZ concentrations were 0 (•), 25 (□), 50 (♦), 75 (Δ), and 100 (▴) μM. All incubation mixtures included 2% final DMSO. […] The error bars in (B) and (D) represent ± the standard errors of the k obs values estimated separately at each inhibitor concentration, as obtained from nonlinear regression analysis.

[14] = substrate of TGR (20 nM), 25 °C, pH 7.4, 100 μM NADPH, ± SD

In the case of `O.O.O.O=C([O-])[C@H]([O-])[C@@H]([O-])C(=O)[O-].O=C([O-])[C@H]([O-])[C@@H]([O-])C(=O)[O-].[K+].[K+].[Sb+3].[Sb+3]` [PAT, potassium antimonyl tartrate], the “Differential in toxicity between adult worms and mammalian cells” value [1] is listed as “similarly large differential in toxicity”, the “Activity of Enzyme (% of Uninhibited Enzyme)” value [2] is listed as 0% and the IC50 [3] is listed as 16000 nM. It also gave an IC50 [4] of 51 nM, an IC50 [5] of 37 nM and a Ki ([6]; DTNB as substrate, read-out: Ki (± standard deviation), TrxR activity of TGR) of 4.86 ± 0.46 nM. For the same compound, the Ki ([6]; GSSG as substrate, read-out: Ki (± standard deviation), GR activity of TGR) was 7.22 ± 4.96 nM and the “Type of inhibition of TGR” value [6] was “noncompetitive”.
With `NC(=O)C1=CN([C@@H]2O[C@H](COP(=O)(O)OP(=O)(O)OC[C@H]3O[C@@H](n4cnc5c(N)ncnc54)[C@H](OP(=O)(O)O)[C@@H]3O)[C@@H](O)[C@H]2O)C=CC1` [NADPH] the Km ([7]; read-out: Apparent Km, S. mansoni TGR) was 13.7 µM, the kcat ([7]; substrate of TGR (20 nM), 25 °C, pH 7.4, 100 μM NADPH) was 20.1 s⁻¹ and the Km [7, 14] was 13.7 ± 2.4 µM. For the same compound, the Vmax [7, 14] was 25.1 ± 1.8 µM/min, the Km [8] was 19.6 µM and the Km [9] was 10.7 µM. The Km [10] was 8.5 µM.
With `Cc1c(-c2cnccn2)ssc1=S` [OPZ, oltipraz] the inhibition at 12.5 µM [11] was 0%, the inhibition at 12.5 µM [12] was 37% and the “k i, first-order rate constant for irreversible inactivation, GR assay” value [13] was about 0.04 min⁻¹. The “k i, first-order rate constant for irreversible inactivation, TrxR assay” value [13] was about 0.06 min⁻¹, the activity [2] was 13% and the Ki ([6]; Ki (± standard deviation), GR activity of TGR, GSSG as substrate) was 33800 ± 6000 nM. The Ki ([6]; Ki (± standard deviation), TrxR activity of TGR, DTNB as substrate) was 18100 ± 1100 nM and the “Type of inhibition of TGR” value [6] was “noncompetitive”.
